{"source": "patent US7989479B2", "about": "“Use of a p38 kinase inhibitor for treating psychiatric disorders” (GlaxoSmithKline LLC, priority 2006, dated 2011)", "key": {"[1]": {"test_system": "LPS induced elevations in TNF-a, IL-6, IL-10 and ACTH levels", "experiment": "LPS induced elevations of cytokines and HPA-axis markers in blood (biomarker analysis, satellite group)", "format": "in vivo", "details": "rats; 20 mg/kg p.o. 1 hour before LPS (125 ug/kg i.p.); blood samples", "from_the_text": "(§1) Administration of lipopolysaccharide (LPS) to rats is known to produce not only robust measures of sickness behaviour (reduced locomotor activity, reduced intake of both food and water, decreased body weight & decreased social interest) but also large elevations of peripheral pro-inflammatory cytokines and HPA-axis markers that can mimic some of the symptoms and underlying pathobiology observed in major depressive disorder (Dunn et al., (2005). Neurosci. Behav. Rev., 29, 891-909). Indeed the injection of cytokines into man produces such neuropsychiatric disturbances in non-major depressive disorder patients (Schiepers & Maes (2005). Prog. Neuro-psychopharmacol. & Biol. Psych., 29, 201-217).\n(§2) 6-(5-Cyclopropylcarbamoyl-3-fluoro-2-methyl-phenyl)-N-(2,2-dimethylpropyl)-nicotinamide was administered (p.o.) 1 hour before the administration of LPS (125 ug/kg i.p.) and then behavioural assessments were performed 2 hours thereafter. A satelite group of animals were treated in the same way and blood samples taken for biomarker analysis."}, "[2]": {"test_system": "LPS induced sickness behaviour", "experiment": "LPS induced sickness behaviour in rats", "format": "in vivo", "details": "20 mg/kg p.o. 1 hour before LPS (125 ug/kg i.p.), behavioural assessments 2 hours thereafter", "from_the_text": "as §1, §2"}}, "data": [{"smiles": "Cc1c(F)cc(C(=O)NC2CC2)cc1-c1ccc(C(=O)NCC(C)(C)C)cn1", "note": "[6-(5-Cyclopropylcarbamoyl-3-fluoro-2-methyl-phenyl)-N-(2,2-dimethylpropyl)-nicotinamide]", "values": [{"measurement": "reduction in LPS induced elevation in ACTH level", "setting": "[1]", "result": "> 80", "unit": "%"}, {"measurement": "reduction in LPS induced elevation in IL-6 level", "setting": "[1]", "result": "> 80", "unit": "%"}, {"measurement": "reduction in LPS induced elevation in IL-10 level", "setting": "[1]", "result": "> 80", "unit": "%"}, {"measurement": "reduction in LPS induced elevation in TNF-a level", "setting": "[1]", "result": "> 80", "unit": "%"}, {"measurement": "reversal of LPS induced sickness behaviour", "setting": "[2]", "result": "significantly reversed"}]}]}
